Experimental findings from patent publication US7902401B2, “Fluorinated compounds” (priority 2006, dated 2011) are described below.

For data set [1], the system named is CD-1 mice. Nature of the data set: Maximal Electroshock Assay (Mouse). Type of data set: in vivo. Conditions: mouse MES, 1 h and 4 h pretreatment timepoints. The procedure:
Male, CD-1 mice (20-30 g body weight) were orally pretreated with test compound or vehicle control, and either at 1 h or 4 h post dose a maximal electroshock (45 mA amplitude, 0.2 s duration, 60 Hz) was applied by corneal electrodes. […] Animals received only one electroshock and so separate animals were used for the 1 h and 4 h timepoints. All drugs were administered in multiple doses.

In data set [2] the test system is Sprague-Dawley rats. Kind of data set: Maximal Electroshock Assay (Rat). Type of data set: in vivo. The conditions noted are these: rat MES, 0.5 h and 4 h pretreatment timepoints. The procedure: Male, Sprague-Dawley rats (approx. 100 g body weight) were prescreened for tonic seizure susceptibility prior to drug testing. […] Protection was defined by the absence of a tonic extensor seizure in the animal within 20 s of application of the electrical stimulus, which typically occurred in all vehicle pretreated animals. Animals received only one electroshock on the drug test day and so separate animals were used for the 0.5 h and 4 h timepoints. All drugs were administered in multiple doses.
(In general: In the maximal electroshock model the usual endpoint is tonic extension of the hind limbs.)

The subject of data set [3] is SNI rats. Nature of the data set: Spared nerve injury (SNI) model, mechanical allodynia. Type of data set: in vivo, rat. The conditions noted are these: 30 mg/kg, i.p. The protocol:
The compounds were tested for their efficacy in reducing mechanical allodynia and cold allodynia in the spared nerve injury (SNI) model of chronic neuropathic pain. In this model, the left sciatic nerve of the rat is exposed under anesthesia. Two of the branches of the sciatic nerve viz. the common peroneal and tibial nerve are ligated and sectioned. The third branch (sural nerve) is left intact. The animals were allowed a post-operative recovery period of 7 days before they were subjected to any test.
The presence of mechanical allodynia was assessed using the Dynamic Plantar Aesthesiometer (Ugo Basile, Italy) which is a modified version of the Von Frey Hair test. In this, a test filament is positioned below the animal's hind paw and the unit is activated which causes the filament to move up and touch the plantar surface of the hind paw. Increasing force is applied to the paw via the filament. […] The cut-off force is set at 50 g. The tests were done on both the non-injured (control) and the injured (SNI) paw.
Testing of compounds was done after 21 days post-operatively. After initial basal readings were taken, the test compound or the vehicle was administered (10 ml/kg) either intraperitoneally (30 mg/kg) or orally (60 mg/kg). The readings were taken again 30, 60 and 180 min after the compound/vehicle administration.

For `CC(=O)NC(COC(F)F)C(=O)NCc1ccccc1` (centres unmarked) [Compound 3, 2-(Acetylamino)-N-benzyl-3-(difluoro-methoxy)propanamide], the duration of action entry in data set [1] and in data set [2] was “longer than Lacosamide” in each case.

Regarding `CC(=O)NC(COC(F)F)C(=O)NCc1ccc(F)cc1` (centres unmarked) [Compound 4], the duration of action entry in data set [1] and in data set [2] was “longer than Lacosamide” each time.

By melting point is commonly meant the temperature of the solid-liquid transition. `CC(=O)N[C@H](COC(F)F)C(=O)NCc1ccc(F)cc1` registered a melting point of 162.7 °C.

For the molecule `CC(=O)N[C@H](COC(F)F)C(=O)NCc1ccc(Cl)cc1` [Compound 20, (2R)-2-(acetylamino)-N-(4-chlorobenzyl)-3-(difluoromethoxy)propanamide], in data set [3], the “withdrawal threshold, Post Admin 60 min” value is 25.3 ± 3.2 g. The duration of action entry in data set [1] and in data set [2] was “longer than Lacosamide” each time.
